Measured values from patent US20090130121A1, “Synthetic Peptide Copolymers for Treatment and Prevention of Cardiovascular Disorders” (Yeda Research and Development Co., Ltd., priority 2005, published 2009).

What was measured:
[1] = tested on: C57BL/J6 mice maintained on an atherogenic diet; assay: Atherosclerotic fatty streak area (oil red O) in aorta of C57BL/J6 mice on atherogenic diet; format: in vivo
Excerpt: Fourteen-month-old male C57BL/J6 mice (Harlan) with an average body weight of 19 g were randomly divided into three groups (five animals in each group). The groups entered a two-week acclimatization period. Groups A, which served as positive control and B, which served as the treated group, received a high fat atherogenic diet containing 1.25 % cholesterol, 0.5% sodium cholate and 15% fat (Harlan Laboratories, Teklad Premier Laboratory Diets, Madison, Wis., USA TD 88051). Group C served as negative control and was maintained on a normal mouse chow (Altromin, Standard Diet). The chow was supplied considering that the average intake of food for each animal is about 5 g/day (Walker et al., 1999, Arterioscler Thromb Vasc Biol. 19, 2673-2679). Replenishment of food and autoclaved water was performed every other day. All the animals were weighed weekly during the study. The mice were maintained on a 12-hour light/dark cycle in ventilated cages and temperature-controlled environment, in accordance with the standard animal care requirements of the Weizmann Institute of Science. […]
Histological evaluations of aortic fatty streak formation were performed according to the method of Paigen et al. with some modifications (Paigen et al., 1987. Atherosclerosis. 68:231-240). […] The fatty streak area stained with oil red O was objectively determined using a computer microscopy planimetry system (Nikon Micro & Macro system eclipse E800; Nikon digital camera DXM 1200 CCD; Nikon ×20/0.75 lens magnification) and Image-Pro Plus image analyses software for Windows XP. The total stained area (calculated for all 20 slices of each animal) was averaged per section for each animal. […]
(§1) ANOVA single factor test was used for the comparison of the body weights of the C57BL/J6 mice. Since no fatty streaks were detected in the negative control group of the C57BL/J6 mice (Group C), only two groups (A and B) participated in the statistical analysis of the results obtained in the quantization of aortic fatty streak area. The C57BL/J6 data were analyzed using Student's t-test: two samples assuming unequal variance. […]

[2] = several clinical trials; mostly mild reactions at the injection site; cited from earlier work
[3] = Body weight gain and plasma lipids in apoE-/- mice; format: in vivo; details: high and low doses, subcutaneously or orally, daily 8 weeks
Method: (§2) apoE-/- (backcrossed 10 times to C57BL/6J) mice were obtained from the Jackson Laboratory and were maintained under specific pathogen-free conditions and fed a normal chow diet. All experimental procedures were performed with approval from the Animal Care Committee of the Weizmann Institute of Science.
(§3) Eight-month-old apoE-/- mice (101 mice) were divided into 7 groups, […] (except day 0 group; n=11). Control group-time 0 (group 1) was sacrificed before treatment in order to measure the atherosclerotic lesion area prior to the treatments. Treatments were performed daily for a period of 8 weeks. Control group (group II) was orally administrated with PBS (0.2 ml). Control group III was injected subcutaneously (SC) with PBS (0.2 ml). Group IV was orally treated with GA in PBS (5.0 μg/0.2 ml); Groups V was orally treated with GA in PBS (250 μg/0.2 ml). Group VI was injected subcutaneously (SC) with GA in PBS (0.5 mg/0.2 ml). Group VII was injected subcutaneously (SC) with GA in PBS (2.0 mg/0.2 ml).
The whole blood samples were centrifuged for plasma separation and the plasma samples of each group were pooled. Total Plasma cholesterol as well as low and high density lipoprotein cholesterol (LDL and HDL, respectively) concentrations were measured in each group using Konelab 30i autoanalyser (Kone Instruments, Espoo, Finland).

apoE-/- mice [4] = assay: Aortic atherosclerotic lesion area in apoE-/- mice; format: in vivo
Method: as §2, §3
Aortic atherosclerotic areas were measured in control and treated mice of the following groups: I (time 0); III (S.C. PBS); V (Oral GA, 250 μg); and VII (S.C. GA, 2.0 mg).

apoE-/- mice [5] = assay: Atherosclerotic lesion progression in the aortic sinus of apoE-/- mice; format: in vivo; details: daily 8 weeks
Method: as §2
as §3, with “Group IV was orally treated with GA in PBS (5.0 μg/0.2 ml); Groups V was orally treated with GA in PBS (250 μg/0.2 ml).” left out
Histological evaluations of aortic fatty streak formation were performed according to the method of Paigen et al. with some modifications (Paigen et al., 1987. Atherosclerosis. 68:231-240). Briefly, the apical two thirds of the myocardium were removed and the basal part was snap-frozen in OCT (Sakura Tissue-Tek) using Isopentan cooled in liquid nitrogen. The frozen tissue blocks were placed on a cryostat, and 10-μm serial slices of the ascending aorta were collected on charge-coated Superfrost glass slides until it became possible to locate the most cranial portion of the aortic sinus by examining unstained slices. Once this slice was identified, 40 slices covering 400 μm of the ascending aorta were collected. Every second slice of the 40 collected was stained with oil red O (Riedel de Haen), counterstained with hematoxylin (Merck) stains and used for further evaluation. The fatty streak area stained with oil red O was objectively determined using a computer microscopy planimetry system (Nikon Micro & Macro system eclipse E800; Nikon digital camera DXM 1200 CCD; Nikon ×20/0.75 lens magnification) and Image-Pro Plus image analyses software for Windows XP. The total stained area (calculated for all 20 slices of each animal) was averaged per section for each animal. Thereafter, the area per slice was averaged for each group of animals and presented in μm^2.
Student's t-test was used for the comparison of the lesion progression in the aortic sinus of the treated and control groups of the apoE-/- mice.

[6] = Survival and body weight of C57BL/J6 mice on atherogenic diet, daily SC treatment; format: in vivo; details: Group B, GA 0.5 mg/0.2 ml SC daily
Excerpt: Fourteen-month-old male C57BL/J6 mice (Harlan) with an average body weight of 19 g were randomly divided into three groups (five animals in each group). The groups entered a two-week acclimatization period. Groups A, which served as positive control and B, which served as the treated group, received a high fat atherogenic diet containing 1.25 % cholesterol, 0.5% sodium cholate and 15% fat (Harlan Laboratories, Teklad Premier Laboratory Diets, Madison, Wis., USA TD 88051). Group C served as negative control and was maintained on a normal mouse chow (Altromin, Standard Diet). The chow was supplied considering that the average intake of food for each animal is about 5 g/day (Walker et al., 1999, Arterioscler Thromb Vasc Biol. 19, 2673-2679). Replenishment of food and autoclaved water was performed every other day. All the animals were weighed weekly during the study. The mice were maintained on a 12-hour light/dark cycle in ventilated cages and temperature-controlled environment, in accordance with the standard animal care requirements of the Weizmann Institute of Science.
Following acclimatization, the animals in groups A (positive control) and C (negative control) received 0.2 ml of PBS injected daily subcutaneously (SC). The animals in group B (treated) received SC daily injections of glatiramer acetate (GA) (COPAXONE®, Teva Pharmaceutical Industries Ltd) in PBS (0.5 mg/0.2 ml). After 8 weeks all the mice were bled retro-orbitally and humanely sacrificed by cervical dislocation. The hearts and ascending aorta were removed from the animals, rinsed with Dulbecco's PBS (Life Technologies) and used for the evaluation of fatty streak formation.
as §1

[7] = tested on: apolipoprotein E-deficient mice; details: 12 week treatment; cited from earlier work

Compound | animals with no fatty streaks in the analysed aortic section (20 slices) ([1]; Group B, GA 0.5 mg SC daily 8 weeks, animals that reached the end of the study) | reduction in the fatty streak area compared to the untreated mice ([1]; calculated for all four mice in Group B) | average area stained with oil red O relative to positive control Group A ([1]; the two GA-treated mice that had fatty streaks, p=0.014) | tolerability in clinical trials [2] | effect on body weight gain [3] | change in aortic lesion area compared to time 0 (apoE-/- mice [4]; Oral GA 250 μg, group V, P<0.05) | inhibition of aortic lesion area progression compared to control group III (apoE-/- mice [4]; high dose 2.0 mg S.C., group VII, t-test P=0.009) | inhibition of the progression of lesion area in the aortic sinus with respect to control (apoE-/- mice [5]; high dose S.C. (2.0 mg)) | inhibition of the progression of lesion area in the aortic sinus with respect to control (apoE-/- mice [5]; high dose orally (250 μg)) | effect on lesion progression in the aortic sinus (apoE-/- mice [5]; low dose S.C. (500 μg)) | effect on lesion progression in the aortic sinus (apoE-/- mice [5]; low dose orally (50 μg)) | average body weight ten weeks following the initiation of the study ([6]; atherogenic diet) | weight gained during the 10 weeks of the study ([6]; atherogenic diet) | animals that reached the end of the study ([6]; one animal found dead five weeks into the study) | decrease in the size of atherosclerotic lesions [7]
glatiramer acetate [GA] | two out of four | 4 fold | 40% | well tolerated with only minor side reactions | did not affect | significance increase | 52% | 44.4% | 37.7% | did not effect | did not effect | 24.20 ± 0.94 g | 5.24 ± 1.40 g | Four out of five | –
CC(=O)CCCCn1c(=O)c2c(ncn2C)n(C)c1=O [PTX, pentoxifylline] | – | – | – | – | – | – | – | – | – | – | – | – | – | – | 60%
